Results published in patent US20240124398A1 (priority 2021, published 2024).
Where “and” joins values, the source holds several entries; their conditions need not be identical. Identical values can stand only once. Entries after “also recorded” stand apart in the source; their conditions may differ. Counter-ions that a name gives are not always drawn.

Key:
[1] = Static storage for 7 days at 40° C./75% RH (XRPD and HPLC); details: for Static Storage 40° C./75% RH: XRPD: XRPD pattern after 7 days at 40° C. and 75% relative humidity; for Static Storage 40° C./75% RH: HPLC: HPLC purity after 7 days at 40° C. and 75% relative humidity
[2] = Solubility of psilocin salts in saline; details: for XRPD of Residue: solid residue after 5 hours in saline; for Solubility (in words): comparison among forms or with freeform
[3] = Intrinsic dissolution rate (IDR); format: physicochemical; details: for IDR (in words): ranking among TAR Pattern 1, SUC Pattern 3, BEN Pattern 1
GVS (hygroscopicity) = format: physicochemical
[4] = Table 9, saturated solution in saline, 25° C., 5 hours

## Psilocin tartrate
[1]
  Static Storage 40° C./75% RH: XRPD: TAR Pattern 4

## CCC(=O)O.CN(C)CCc1c[nH]c2cccc(O)c12 [Psilocin propionate PRO Pattern 1, Psilocin propionate]
[1]
  Static Storage 40° C./75% RH: HPLC: HPLC- 99.4%
  Static Storage 40° C./75% RH: XRPD: PRO Pattern

## CN(C)CCc1c[nH]c2cccc(O)c12 [Psilocin free base, Psilocin, reference compound]
[2]; [4]
  pH at 5 hrs: 9.8 and 9.9
[2]; Table 9
  XRPD of Residue: Freeform Pattern 1
[2]; Table 10 (updated), saline
  pH at 5 hrs: 9.8 and 9.9
[3]
  IDR: [Freeform = 0.09] mg/min/cm2

## Psilocin adipate [Psilocin adipate ADI Pattern 2]
[1]
  Static Storage 40° C./75% RH: HPLC: HPLC- 98.1%
  Static Storage 40° C./75% RH: XRPD: ADI Pattern 3

## CN(C)CCc1c[nH]c2cccc(O)c12.O=S(=O)(O)c1cccc2c(S(=O)(=O)O)cccc12 [Psilocin 1,5-napthalenedisulfonate NAP Pattern 1]
[2]; [4]
  pH at 5 hrs: 2.0
[2]; Table 9
  XRPD of Residue: NAP Pattern 1
[2]; Table 10 (updated), saline
  pH at 5 hrs: 2.0
[2]; saline
  Solubility (in words): substantial increases in solubility compared with the freeform
[1]
  Static Storage 40° C./75% RH: HPLC: HPLC- 97.2%
  Static Storage 40° C./75% RH: XRPD: NAP Pattern 1

## CN(C)CCc1c[nH]c2cccc(O)c12.O=S(=O)(O)c1cccc2c(S(=O)(=O)O)cccc12 [Psilocin 1,5-napthalenedisulfonate NAP Pattern 2]
[1]
  Static Storage 40° C./75% RH: HPLC: HPLC - 99.2%
  Static Storage 40° C./75% RH: XRPD: NAP Pattern 1

## Psilocin succinate [SUC Pattern 3]
GVS (hygroscopicity)
  GVS hygroscopicity (in words): hygroscopic
GVS (hygroscopicity); 0-80% RH
  GVS mass change between 0 and 80% RH: Only 1.0% mass
[3]
  IDR: 12.4 mg/min/cm2
  IDR (in words): highest IDR

## CN(C)CCc1c[nH]c2cccc(O)c12.O=C(O)c1ccccc1O [Psilocin salicylate SAL Pattern 2, Psilocin salicylate]
[1]
  Static Storage 40° C./75% RH: HPLC: HPLC- 99.8%
  Static Storage 40° C./75% RH: XRPD: SAL Pattern 2 +

## CN(C)CCc1c[nH]c2cccc(O)c12 [Psilocin hydrochloride HCl Pattern 1, Psilocin hydrochloride]
[2]; Table 9, saturated solution in saline, 25° C., 5 hours, hydrochloride
  pH at 5 hrs: 6.0 and 6.1
[2]; Table 10 (updated), saline, hydrochloride
  pH at 5 hrs: 4.0 and 5.4

## Psilocin tartrate [TAR Pattern 1]
GVS (hygroscopicity)
  GVS hygroscopicity (in words): Slightly Hygroscopic
  GVS reversible mass change between 0-90% RH: Reversible 1.4%
[2]; [4]
  pH at 5 hrs: 3.4
[2]; Table 10 (updated), saline
  pH at 5 hrs: 3.5
[3]
  IDR: 6.9 mg/min/cm2
  IDR (in words): second highest IDR

## Psilocin acetate [Psilocin acetate ACE Pattern 2]
[1]
  Static Storage 40° C./75% RH: HPLC: HPLC- 83.4%
  Static Storage 40° C./75% RH: XRPD: ACE Pattern 3

## Psilocin fumarate [Psilocin fumarate FUM Pattern 1]
[1]
  Static Storage 40° C./75% RH: XRPD: FUM Pattern 3; also recorded: FUM Pattern 4

## CN(C)CCc1c[nH]c2cccc(O)c12.O=C(O)c1ccccc1O [Psilocin salicylate SAL Pattern 1, Psilocin salicylate]
[2]; [4]
  pH at 5 hrs: 4.2
[2]; Table 9
  XRPD of Residue: SAL Pattern 1
[2]; Table 10 (updated), saline
  pH at 5 hrs: 4.2
[2]; saline
  Solubility (in words): substantial increases in solubility compared with the freeform
[1]
  Static Storage 40° C./75% RH: HPLC: HPLC- 99.1%
  Static Storage 40° C./75% RH: XRPD: SAL Pattern

## Psilocin oxalate [Psilocin oxalate OX Pattern 1]
[1]
  Static Storage 40° C./75% RH: HPLC: HPLC- 94.4%
  Static Storage 40° C./75% RH: XRPD: OX Pattern 3

## Psilocin acetate [Psilocin acetate ACE Pattern 1]
[1]
  Static Storage 40° C./75% RH: HPLC: HPLC - 75.2%
  Static Storage 40° C./75% RH: XRPD: ACE Pattern 1 +

## Psilocin phosphate [Psilocin phosphate PHO Pattern 1]
[1]
  Static Storage 40° C./75% RH: HPLC: HPLC - 93.9%
  Static Storage 40° C./75% RH: XRPD: PHO Pattern 2

## Psilocin pamoate [Psilocin pamoate PAM Pattern 1]
[1]
  Static Storage 40° C./75% RH: HPLC: HPLC- 99.6%
  Static Storage 40° C./75% RH: XRPD: PAM Pattern 1

## CN(C)CCc1c[nH]c2cccc(O)c12.O=C(O)c1ccccc1 [BEN Pattern 1, Psilocin benzoate]
GVS (hygroscopicity)
  GVS hygroscopicity (in words): Non-hygroscopic
  GVS reversible mass change between 0-90% RH: Reversible 0.25%
[2]; Table 9, saturated solution in saline, 25° C., 5 hours, listed as Psilocin benzoate BEN Pattern 1
  pH at 5 hrs: 6.8 and 6.9
[2]; Table 9
  XRPD of Residue: BEN Pattern 1
[2]; Table 10 (updated), saline, listed as Psilocin benzoate BEN Pattern 1
  pH at 5 hrs: 6.8 and 6.9
[2]; saline
  Solubility (in words): substantial increases in solubility compared with the freeform; also recorded: lowest solubility
[2]; summary Table 4, saline, 25° C., 5 hours
  Solubility in Saline: 5000 µg/mL
[3]
  IDR: 0.4 mg/min/cm2
  IDR (in words): lowest
[1]
  Static Storage 40° C./75% RH: HPLC: HPLC- 99.0%
  Static Storage 40° C./75% RH: XRPD: BEN Pattern 1

## Psilocin succinate
[1]
  Static Storage 40° C./75% RH: XRPD: SUC Pattern 5

## Psilocin adipate [Psilocin adipate ADI Pattern 1]
[1]
  Static Storage 40° C./75% RH: HPLC: HPLC- 98.4%
  Static Storage 40° C./75% RH: XRPD: ADI Pattern 1 +

## Psilocin oxalate [Psilocin oxalate OX Pattern 2]
[1]
  Static Storage 40° C./75% RH: HPLC: HPLC- 97.1%
  Static Storage 40° C./75% RH: XRPD: OX Pattern 3 +
